From PubChem BioAssay (NCI)
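Test compounds were applied to cells in 96-well plates for 48 hours at 5 doses. TGI denotes the concentration required for complete inhibition of growth.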

What was measured:
Assay in all cases: DTP human tumour cell line panel, 48 h
786-0 renal = system: 786-0 renal
A498 renal = system: A498 renal
A549 NSCLC = system: A549 NSCLC
ACHN renal = system: ACHN renal
BT-549 breast = system: BT-549 breast
CAKI-1 renal = system: CAKI-1 renal
CCRF-CEM leukemia = system: CCRF-CEM leukemia
COLO 205 colon = system: COLO 205 colon
EKVX NSCLC = system: EKVX NSCLC
HCC-2998 colon = system: HCC-2998 colon
HCT-116 colon = system: HCT-116 colon
HCT-15 colon = system: HCT-15 colon
HL-60(TB) leukemia = system: HL-60(TB) leukemia
HOP-62 NSCLC = system: HOP-62 NSCLC
HOP-92 NSCLC = system: HOP-92 NSCLC
HS 578T breast = system: HS 578T breast
HT29 colon = system: HT29 colon
IGROV1 ovarian = system: IGROV1 ovarian
K-562 leukemia = system: K-562 leukemia
KM12 colon = system: KM12 colon
LOX IMVI melanoma = system: LOX IMVI melanoma
M14 melanoma = system: M14 melanoma
MCF7 breast = system: MCF7 breast
MDA-MB-231 breast = system: MDA-MB-231 breast
MDA-MB-435 = system: MDA-MB-435
MDA-N = system: MDA-N
MOLT-4 leukemia = system: MOLT-4 leukemia
NCI-H226 lung = system: NCI-H226 lung
NCI-H460 lung = system: NCI-H460 lung
NCI-H522 lung = system: NCI-H522 lung
NCI/ADR-RES ovarian = system: NCI/ADR-RES ovarian
OVCAR-3 ovarian = system: OVCAR-3 ovarian
OVCAR-4 ovarian = system: OVCAR-4 ovarian
OVCAR-5 ovarian = system: OVCAR-5 ovarian
OVCAR-8 ovarian = system: OVCAR-8 ovarian
PC-3 prostate = system: PC-3 prostate
RPMI-8226 leukemia = system: RPMI-8226 leukemia
SF-268 CNS = system: SF-268 CNS
SF-295 CNS = system: SF-295 CNS
SF-539 CNS = system: SF-539 CNS
SK-MEL-2 melanoma = system: SK-MEL-2 melanoma
SK-MEL-28 melanoma = system: SK-MEL-28 melanoma
SK-MEL-5 melanoma = system: SK-MEL-5 melanoma
SK-OV-3 ovarian = system: SK-OV-3 ovarian
SN12C renal = system: SN12C renal
SNB-19 CNS = system: SNB-19 CNS
SR leukemia = system: SR leukemia
SW-620 colon = system: SW-620 colon
T-47D breast = system: T-47D breast
TK-10 renal = system: TK-10 renal
U251 CNS = system: U251 CNS
UACC-257 melanoma = system: UACC-257 melanoma
UACC-62 melanoma = system: UACC-62 melanoma
UO-31 renal = system: UO-31 renal
DU-145 prostate = system: DU-145 prostate
MALME-3M melanoma = system: MALME-3M melanoma
NCI-H23 lung = system: NCI-H23 lung
RXF 393 renal = system: RXF 393 renal
SNB-75 CNS = system: SNB-75 CNS

## C=C1C(=O)OC2CC(=C)C3CC=C(C)C3CC12 (configuration not stated)
786-0 renal
  TGI: 31.3 µM
A498 renal
  TGI: > 100 µM
A549 NSCLC
  TGI: > 100 µM
ACHN renal
  TGI: 47.8 µM
BT-549 breast
  TGI: 59.7 µM
CAKI-1 renal
  TGI: 28.2 µM
CCRF-CEM leukemia
  TGI: > 100 µM
COLO 205 colon
  TGI: 41.7 µM
EKVX NSCLC
  TGI: > 100 µM
HCC-2998 colon
  TGI: 43.3 µM
HCT-116 colon
  TGI: 50.4 µM
HCT-15 colon
  TGI: 36.7 µM
HL-60(TB) leukemia
  TGI: 87.1 µM
HOP-62 NSCLC
  TGI: > 100 µM
HOP-92 NSCLC
  TGI: 28.7 µM
HS 578T breast
  TGI: > 100 µM
HT29 colon
  TGI: 28.5 µM
IGROV1 ovarian
  TGI: 55.5 µM
K-562 leukemia
  TGI: 24.4 µM
KM12 colon
  TGI: > 100 µM
LOX IMVI melanoma
  TGI: 23.5 µM
M14 melanoma
  TGI: 40.9 µM
MCF7 breast
  TGI: 55.3 µM
MDA-MB-231 breast
  TGI: 63.7 µM
MDA-MB-435
  TGI: 32.6 µM
MDA-N
  TGI: 30.6 µM
MOLT-4 leukemia
  TGI: 46.8 µM
NCI-H226 lung
  TGI: 43 µM
NCI-H460 lung
  TGI: > 100 µM
NCI-H522 lung
  TGI: 36.2 µM
NCI/ADR-RES ovarian
  TGI: > 100 µM
OVCAR-3 ovarian
  TGI: 91.9 µM
OVCAR-4 ovarian
  TGI: > 100 µM
OVCAR-5 ovarian
  TGI: > 100 µM
OVCAR-8 ovarian
  TGI: > 100 µM
PC-3 prostate
  TGI: 28.4 µM
RPMI-8226 leukemia
  TGI: > 100 µM
SF-268 CNS
  TGI: > 100 µM
SF-295 CNS
  TGI: > 100 µM
SF-539 CNS
  TGI: > 100 µM
SK-MEL-2 melanoma
  TGI: 26.5 µM
SK-MEL-28 melanoma
  TGI: 77.3 µM
SK-MEL-5 melanoma
  TGI: > 100 µM
SK-OV-3 ovarian
  TGI: 80 µM
SN12C renal
  TGI: 31.7 µM
SNB-19 CNS
  TGI: 54.5 µM
SR leukemia
  TGI: 55.6 µM
SW-620 colon
  TGI: 32.4 µM
T-47D breast
  TGI: 37.1 µM
TK-10 renal
  TGI: 34.4 µM
U251 CNS
  TGI: 29.6 µM
UACC-257 melanoma
  TGI: 27.5 µM
UACC-62 melanoma
  TGI: 25.3 µM
UO-31 renal
  TGI: 29.3 µM

## CC(C)(C)OC(=O)c1ccc(NCC2=CC(=O)C=CC2=O)cc1
786-0 renal
  TGI: 22 µM
A498 renal
  TGI: 30.9 µM
A549 NSCLC
  TGI: 40.1 µM
ACHN renal
  TGI: 22.2 µM
BT-549 breast
  TGI: 29.5 µM
CAKI-1 renal
  TGI: 3.39 µM
CCRF-CEM leukemia
  TGI: 5.35 µM
COLO 205 colon
  TGI: 7.21 µM
DU-145 prostate
  TGI: 31.6 µM
EKVX NSCLC
  TGI: 28.8 µM
HCC-2998 colon
  TGI: 36.6 µM
HCT-116 colon
  TGI: 26.2 µM
HCT-15 colon
  TGI: 20.5 µM
HL-60(TB) leukemia
  TGI: 3.29 µM
HOP-62 NSCLC
  TGI: > 61.8 µM
HOP-92 NSCLC
  TGI: 4.4 µM
HS 578T breast
  TGI: 46 µM
HT29 colon
  TGI: 35 µM
IGROV1 ovarian
  TGI: 23.9 µM
K-562 leukemia
  TGI: > 100 µM
KM12 colon
  TGI: 29.6 µM
LOX IMVI melanoma
  TGI: 22.6 µM
M14 melanoma
  TGI: 17.6 µM
MALME-3M melanoma
  TGI: 9.82 µM
MCF7 breast
  TGI: 12.3 µM
MDA-MB-231 breast
  TGI: 21.6 µM
MDA-MB-435
  TGI: 25.9 µM
MDA-N
  TGI: 25.3 µM
MOLT-4 leukemia
  TGI: 4.38 µM
NCI-H226 lung
  TGI: 40.5 µM
NCI-H23 lung
  TGI: 22.2 µM
NCI-H460 lung
  TGI: > 59.5 µM
NCI-H522 lung
  TGI: 3.1 µM
NCI/ADR-RES ovarian
  TGI: 28.2 µM
OVCAR-3 ovarian
  TGI: 16.1 µM
OVCAR-4 ovarian
  TGI: 22 µM
OVCAR-5 ovarian
  TGI: 32.5 µM
OVCAR-8 ovarian
  TGI: 26.9 µM
PC-3 prostate
  TGI: 24.4 µM
RPMI-8226 leukemia
  TGI: > 27.1 µM
RXF 393 renal
  TGI: 23.6 µM
SF-268 CNS
  TGI: 24.3 µM
SF-295 CNS
  TGI: 50.5 µM
SF-539 CNS
  TGI: 12.7 µM
SK-MEL-2 melanoma
  TGI: 31.8 µM
SK-MEL-28 melanoma
  TGI: 29.2 µM
SK-MEL-5 melanoma
  TGI: 29 µM
SK-OV-3 ovarian
  TGI: 41.6 µM
SN12C renal
  TGI: 23.8 µM
SNB-19 CNS
  TGI: 31.4 µM
SNB-75 CNS
  TGI: 24.3 µM
SR leukemia
  TGI: > 23.1 µM
SW-620 colon
  TGI: 22.6 µM
TK-10 renal
  TGI: 21.3 µM
U251 CNS
  TGI: 27.1 µM
UACC-257 melanoma
  TGI: 24.9 µM
UACC-62 melanoma
  TGI: 26 µM
UO-31 renal
  TGI: 19.7 µM
